According to patent US12589143B2, “Human anti-PD-L1 peptide vaccines and methods of their use” (priority 2019, dated 2026):
Where no end group is shown, it is not given here.

What was measured:
[1] = Mouse antibody isotyping assay; type: in vivo, Balb/c mice
Description: We also analyzed the different isotypes of antibodies being generated by vaccination.
Antibody isotypes (i.e. IgA, IgM, IgG1, IgG2a, IgG2b, IgG3) were determined using the Mouse Typer Isotyping Kit (BIO-RAD, Hercules, CA). Briefly, wells of a 96-well assay plate were coated with 200 ng peptide antigen in ddH2O, and incubated at 4° C. overnight. The plate was washed with washing buffer (0.05% Tween-20 and 1% horse sera in PBS). The plate was then blocked with 1% BSA in PBS at room temperature for 1 hour. 100 ul of diluted mice sera was added to each well for 2 hours and after washing the wells, 100 μl ready to use rabbit anti-mouse subclasses antibodies were added to each well respectively and incubated at room temperature for another 2 hours. The wells were washed again, 100 μl of 1/3000 dilution of goat anti-rabbit conjugated to HRP antibody (BIO-RAD, Hercules, CA) was added to each well and incubated for 1 hour at room temperature in dark. The plate was then washed and 50 μl prepared substrate solution was added to each well. The reaction was stopped with 25 μl 5% SDS stopping buffer. Absorbance at 415 nm was determined using an ELISA plate reader. Dilutions of each sera samples were determined by the ELISA titers shown in absorbance of 0.4 or higher after subtracting the background.

D2F2 WT tumor cells = assay: D2F2 WT tumor challenge in Balb/c mice; type: in vivo
Description: Balb/c mice 6-8 weeks old, were immunized with G1 and G2 mice were treated with anti-PD-1 mAb (29F.1A12) (G1) or anti-PD-L1 mAb (10F.9G2) (G2 or with MVF-PD-L1 vaccine constructs [PD-L1(92-110)(G3) PD-L1(130-147)(G4)] prior to tumor challenge. Similarly, G10, G11 and G12 are control groups and were not treated prior to tumor cell challenge. G13, G14 and G15 mice were immunized with 100 ug MVF-HER-2(266-296)+100 ug MVF-HER-2(597-626)+ISA720 per mouse for G13, 100 ug MVF-PD-1 (92-110)+100 ug MVF-HER-2(266-296)+100 ug MVF-HER-2(597-626)+ISA720 per mouse for G14 and 100 ug MVF-PD-L1 (130-147)+100 ug MVF-HER-2(266-296)+100 ug MVF-HER-2(597-626)+ISA720 per mouse for G15. The mice were immunized up to 4 times before tumor challenge. […] All the mice had been monitored at least twice per week, and the tumors were measured with calipers as data indicated.
The tumor volumes were measured by calipers and calculated by formula: (length×width2)/2. […] All the peptides immunized groups of mice are shown with less tumor burden than PBS group and mAbs treated groups as well.
G0, G1 and G2 are control groups, mice in these groups were not treated before tumor cells challenge. Following challenge with D2F2 WT tumor cells, G0 mice were treated with PBS (i.p.) twice per week start from day 2 post challenge served as negative control, G1 and G2 mice were treated with anti-PD-1 mAb (29F.1A12) or anti-PD-L1 mAb (10F.9G2), respectively. Treatment for G1 and G2 mouse groups was also started from day 2 post tumor challenge, with 100 ug administered/mouse twice a week. G1 and G2 served as positive control. […] All the mice had been monitored at least twice per week, and the tumors were measured with calipers as data indicated (FIG. 26).
Mice were immunized with designed peptides vaccines as descripted in FIG. 26, which indicated as 1Y, 2Y, 3Y and 4Y here and with 3 weeks apart. […] And the mice were monitor at least twice per week, and the tumors were measured as shown in the data figures.
The tumor volumes were measured by calipers and calculated by formula: (length×width2)/2. […]

Sequence: KLLSLIKGVIVHRLEGVEGPSLVTSEHELTCQAEGYPKAE (KLLSLIKGVIVHRLEGVEGPSLVTSEHELTCQAEGYPKAE-NH2) [PD-L1(130)]
- isotypes of antibodies elicited in the mice ([1]; experiment 1 (CT26 WT)): predominantly of the IgG1 class
- isotypes of antibodies elicited in the mice ([1]; experiment 2 (CT26/HER-2)): predominantly of the IgG1 class
- mice survival (D2F2 WT tumor cells; after day 45 of tumor challenge): about 60%
- tumor volume (D2F2 WT tumor cells; day 21 and day 28): smaller tumor volume than PBS negative control group and both of mAbs positive control groups
